Assay [1] relates to human acute monocytic leukemia cell line MV-4-11. As to the kind of experiment: Assay 2: cell proliferation assay (ATP quantitation, CellTiter-Glo), MV-4-11. Format: cell-based. The note with it: MV-4-11 cells. A digest of the protocol: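 Read-out is CellTiter-Glo luminescence quantifying ATP. Compound exposure lasted 72 h at 37° C., 5% CO2, with 1.67×10^4 MV-4-11 cells per well in 10% FBS medium, alongside HL-60 toxicity-control cells.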
(In ATP-based viability assays light output follows the ATP content of the culture.)

Assay [2] addresses T1, biotinylated wild-type menin and MLL-AF9 fusion protein (menin/MLL binding) (Homo sapiens, UniProt O00255).
T1 construct: made in house; host or cells: menin: E. coli; MLL-AF9-FLAG: HEK293 cells, used as cleared lysate
T1 sequence (O00255 1-610): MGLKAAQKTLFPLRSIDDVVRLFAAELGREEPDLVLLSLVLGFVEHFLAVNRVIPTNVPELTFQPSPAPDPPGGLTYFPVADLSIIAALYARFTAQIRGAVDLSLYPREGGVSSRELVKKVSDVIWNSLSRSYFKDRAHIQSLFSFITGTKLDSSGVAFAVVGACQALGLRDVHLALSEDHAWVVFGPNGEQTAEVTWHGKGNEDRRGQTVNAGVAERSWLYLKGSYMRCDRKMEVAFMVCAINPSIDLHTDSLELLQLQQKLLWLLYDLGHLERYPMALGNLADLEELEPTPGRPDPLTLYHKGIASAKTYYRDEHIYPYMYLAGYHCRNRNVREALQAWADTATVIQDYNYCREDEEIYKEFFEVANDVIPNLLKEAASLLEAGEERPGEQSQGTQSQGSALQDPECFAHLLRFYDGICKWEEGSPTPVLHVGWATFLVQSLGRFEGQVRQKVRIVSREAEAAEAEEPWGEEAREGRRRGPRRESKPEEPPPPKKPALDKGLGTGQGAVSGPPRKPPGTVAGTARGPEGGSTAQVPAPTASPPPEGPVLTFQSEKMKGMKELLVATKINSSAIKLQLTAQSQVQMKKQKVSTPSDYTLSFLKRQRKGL
As to the kind of experiment: Assay 1: menin/MLL binding AlphaLISA assay, wild-type menin. Conditions: Table 30; column head does not say wild-type or mutated menin. A digest of the protocol:
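Compound was preincubated 30 min at room temperature with biotinylated menin (5 nM) and MLL-AF9-FLAG lysate from HEK293 cells, pH 7.4 buffer with 5% DMSO and DTT. Bead-based Alpha signal after 60 min with streptavidin donor and anti-FLAG acceptor beads; four-parameter logistic fit gave IC50.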
In general terms: Alpha assays give light when donor and acceptor beads are brought close together.

As a reminder, the EC50 is the concentration at which the effect is half-maximal. A lower EC50 goes with higher potency in that assay. The term IC50 denotes the concentration that inhibits the measured activity by half. Read a high IC50 as a need for much substance. In turn, `CC(C)n1nccc1-c1cc(F)ccc1Oc1cncnc1N1CCC2(CCN(Cc3ccc4[nH]c(=O)[nH]c4c3)C2)C1` (single isomer, unassigned) [Example 197A, 5-((7-(5-(4-fluoro-2-(1-isopropyl-1H-pyrazol-5-yl)phenoxy)pyrimidin-4-yl)-2,7-diazaspiro[4.4]nonan-2-yl)methyl)-1,3-dihydro-2H-benzo[d]imidazol-2-one] came in with an EC50 in assay [1] (Homo sapiens, MV4-11, 72 h) of less than 100 nM. Moreover, the IC50 in assay [2] is less than 100 nM.

`CC(C)n1nccc1-c1cc(F)ccc1Oc1cncnc1N1CCC2(CCN(Cc3ccc4[nH]c(=O)[nH]c4c3)C2)C1` (single isomer, unassigned) [Example 197B, 5-((7-(5-(4-fluoro-2-(1-isopropyl-1H-pyrazol-5-yl)phenoxy)pyrimidin-4-yl)-2,7-diazaspiro[4.4]nonan-2-yl)methyl)-1,3-dihydro-2H-benzo[d]imidazol-2-one] came in with a concentration giving a half-maximal response (EC50) in assay [1] (72 h) of less than 100 nM. The IC50 in assay [2] was less than 100 nM.

`CC(C)n1nccc1-c1cc(F)ccc1Oc1cncnc1N1CCC2(CCN(C(=O)C(N)C3CCCCC3)C2)C1` (single isomer, unassigned) [Example 206A, 2-amino-2-cyclohexyl-1-(7-(5-(4-fluoro-2-(1-isopropyl-1H-pyrazol-5-yl)phenoxy)pyrimidin-4-yl)-2,7-diazaspiro[4.4]nonan-2-yl)ethanone] came in with an EC50 in assay [1] (Homo sapiens, MV4-11, 72 h) of 100 to 1000 nM. In assay [2], this compound returned a half-inhibitory concentration (IC50) of less than 100 nM.

With `CC(C)N(C(=O)c1cc(F)ccc1Nc1cncnc1N1CCC2(CC1)CN(C1CCC(NS(C)(=O)=O)CC1)C2)C(C)C` (single isomer, unassigned) [Example 248A, 5-fluoro-N,N-diisopropyl-2-((4-(2-(4-(methylsulfonamido)cyclohexyl)-2,7-diazaspiro[3.5]nonan-7-yl)pyrimidin-5-yl)amino) benzamide], in assay [1] (Homo sapiens, MV4-11, 72 h), the EC50 was 100 to 1000 nM. In assay [2], the half-inhibitory concentration (IC50) is less than 100 nM.

In assay [1] (72 h), `CC(C)N(C(=O)c1cc(F)ccc1Nc1cncnc1N1CCC2(CC1)CN(C1CCC(NS(C)(=O)=O)CC1)C2)C(C)C` (single isomer, unassigned) [Example 248B, 5-fluoro-N,N-diisopropyl-2-((4-(2-(4-(methylsulfonamido)cyclohexyl)-2,7-diazaspiro[3.5]nonan-7-yl)pyrimidin-5-yl)amino) benzamide] showed an EC50 of 100 to 1000 nM. For the same compound, the IC50 in assay [2] was less than 100 nM.

For `N#Cc1ccc(-c2cc(F)ccc2Oc2cncnc2N2CCC3(CCC(N)(Cc4ccccc4)C3)C2)c(C2CC2)c1` (single isomer, unassigned) [Example 250B, 2′-((4-(7-amino-7-benzyl-2-azaspiro[4.4]nonan-2-yl)pyrimidin-5-yl)oxy)-2-cyclopropyl-5′-fluoro-[1,1′-biphenyl]-4-carbonitrile], the half-maximal effective concentration (EC50) in assay [1] (Homo sapiens, MV4-11, 72 h) was not below 1000 nM. In assay [2], this compound showed an IC50 of less than 100 nM.

In assay [1] (Homo sapiens, MV4-11, 72 h), `CCN(C(=O)c1cc(F)ccc1Oc1cncnc1N1CCC2(CCN(Cc3ccc4c(c3)[nH]c(=O)n4CCO)C2)C1)C(C)C` (centres unmarked) [Example 4, N-ethyl-5-fluoro-2-((4-(7-((1-(2-hydroxyethyl)-2-oxo-2,3-dihydro-1H-benzo[d]imidazol-5-yl)methyl)-2,7-diazaspiro[4.4]nonan-2-yl)pyrimidin-5-yl)oxy)-N-isopropylbenzamide] yielded an EC50 of less than 100 nM. In assay [2], the IC50 was less than 100 nM.

In the case of `CC(C)N(CCO)C(=O)c1cc(F)ccc1Oc1cncnc1N1CCC2(CCN(Cc3ccc4[nH]c(=O)[nH]c4c3)C2)C1` (centres unmarked) [Example 5, 5-fluoro-N-(2-hydroxyethyl)-N-isopropyl-2-((4-(7-((2-oxo-2,3-dihydro-1H-benzo[d]imidazol-5-yl)methyl)-2,7-diazaspiro[4.4]nonan-2-yl)pyrimidin-5-yl)oxy)benzamide], the EC50 in assay [1] (Homo sapiens, MV4-11, 72 h) was less than 100 nM. Also, the concentration for half-maximal inhibition (IC50) in assay [2] is less than 100 nM.

`CC(C)N(C(=O)c1cc(F)ccc1Oc1cncnc1N1CC2(CCN(C[C@H]3CC[C@H](NS(C)(=O)=O)CC3)CC2)C1)C(C)C` [Example 6A, 5-fluoro-N,N-diisopropyl-2-((4-(7-(((1r,4r)-4-(methylsulfonamido)cyclohexyl)methyl)-2,7-diazaspiro[3.5]nonan-2-yl)pyrimidin-5-yl)oxy)benzamide]: in assay [1] (Homo sapiens, MV4-11, 72 h), the EC50 is less than 100 nM. The same compound yielded an IC50 in assay [2] of less than 100 nM.

In the case of `CC(C)N(C(=O)c1cc(F)ccc1Oc1cncnc1N1CC2(CCN(C[C@H]3CC[C@@H](NS(C)(=O)=O)CC3)CC2)C1)C(C)C` [Example 6B, 5-fluoro-N,N-diisopropyl-2-((4-(7-(((1s,4s)-4-(methylsulfonamido)cyclohexyl)methyl)-2,7-diazaspiro[3.5]nonan-2-yl)pyrimidin-5-yl)oxy)benzamide], the 50% effective concentration (EC50) in assay [1] (Homo sapiens, MV4-11, 72 h) was less than 100 nM. The concentration for half-maximal inhibition (IC50) in assay [2] was less than 100 nM.

The compound `NC(c1cc(F)ccc1Oc1cncnc1N1CCC2(CCN(Cc3ccc4[nH]c(=O)[nH]c4c3)C2)C1)C1CCCC1` (centres unmarked) [Example 7, 5-((7-(5-(2-(amino(cyclopentyl)methyl)-4-fluorophenoxy)pyrimidin-4-yl)-2,7-diazaspiro[4.4]nonan-2-yl)methyl)-1,3-dihydro-2H-benzo[d]imidazol-2-one] returned an EC50 in assay [1] (Homo sapiens, MV4-11, 72 h) of 100 to 1000 nM. The IC50 in assay [2] was less than 100 nM.

The compound `CN(C)C(c1cc(F)ccc1Oc1cncnc1N1CCC2(CCN(Cc3ccc4[nH]c(=O)[nH]c4c3)C2)C1)C1CCCC1` (centres unmarked) [Example 8, 5-((7-(5-(2-(cyclopentyl(dimethylamino)methyl)-4-fluorophenoxy)pyrimidin-4-yl)-2,7-diazaspiro[4.4]nonan-2-yl)methyl)-1,3-dihydro-2H-benzo[d]imidazol-2-one] showed a 50% effective concentration (EC50) in assay [1] (Homo sapiens, MV4-11, 72 h) of less than 100 nM. This compound also yielded a half-inhibitory concentration (IC50) in assay [2] of less than 100 nM.

For `CC(=O)NC(c1cc(F)ccc1Oc1cncnc1N1CCC2(CCN(Cc3ccc4[nH]c(=O)[nH]c4c3)C2)C1)C1CCCC1` (centres unmarked) [Example 9, N-(cyclopentyl(5-fluoro-2-((4-(7-((2-oxo-2,3-dihydro-1H-benzo[d]imidazol-5-yl)methyl)-2,7-diazaspiro[4.4]nonan-2-yl)pyrimidin-5-yl)oxy)phenyl)methyl)acetamide], the half-maximal effective concentration (EC50) in assay [1] (Homo sapiens, MV4-11, 72 h) is not below 1000 nM. Also, in assay [2], the IC50 is less than 100 nM.

Regarding `CC(C)C(O)c1cc(F)ccc1Oc1cncnc1N1CCC2(CCN(Cc3ccc4c(c3)NC(=O)C4(C)C)C2)C1` (centres unmarked) [Example 10, 6-((7-(5-(4-fluoro-2-(1-hydroxy-2-methylpropyl)phenoxy)pyrimidin-4-yl)-2,7-diazaspiro[4.4]nonan-2-yl)methyl)-3,3-dimethylindolin-2-one], the concentration giving a half-maximal response (EC50) in assay [1] (Homo sapiens, MV4-11, 72 h) was not below 1000 nM. In addition, in assay [2], the 50% inhibitory concentration (IC50) was less than 100 nM.

The compound `CC(C)C(=O)c1cc(F)ccc1Oc1cncnc1N1CCC2(CCN(Cc3ccc4c(c3)NC(=O)C4(C)C#N)C2)C1` (centres unmarked) [Example 11, 6-((7-(5-(4-fluoro-2-isobutyrylphenoxy)pyrimidin-4-yl)-2,7-diazaspiro[4.4]nonan-2-yl)methyl)-3-methyl-2-oxoindoline-3-carbonitrile] yielded a concentration giving a half-maximal response (EC50) in assay [1] (Homo sapiens, MV4-11, 72 h) of less than 100 nM. In addition, in assay [2], the IC50 was less than 100 nM.

`CC(C)N(C(=O)c1cc(F)ccc1Oc1cncnc1N1CC2(CCN(C(=O)CCc3ccc(F)cc3)C2)C1)C(C)C` [Example 12, 5-fluoro-2-((4-(6-(3-(4-fluorophenyl)propanoyl)-2,6-diazaspiro[3.4]octan-2-yl)pyrimidin-5-yl)oxy)-N,N-diisopropylbenzamide] showed a concentration for a half-maximal effect (EC50) in assay [1] (Homo sapiens, MV4-11, 72 h) of 100 to 1000 nM. The compound further gave a 50% inhibitory concentration (IC50) in assay [2] of less than 100 nM.

These data come from US12312359B2 (Vitae Pharmaceuticals, LLC, priority 2016, dated 2025).
